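GI50 marks 50% less growth. At the TGI there is no net growth.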
What was measured:
Assay in all cases: DTP human tumour cell line panel, 384-well format
[1] = test system: 786-0 renal
[2] = test system: A498 renal
[3] = test system: A549 NSCLC
[4] = test system: ACHN renal
[5] = test system: BT-549 breast
[6] = test system: CAKI-1 renal
[7] = test system: CCRF-CEM leukemia
[8] = test system: COLO 205 colon
[9] = test system: DU-145 prostate
[10] = test system: EKVX NSCLC
[11] = test system: HCC-2998 colon
[12] = test system: HCT-116 colon
[13] = test system: HCT-15 colon
[14] = test system: HL-60(TB) leukemia
[15] = test system: HOP-62 NSCLC
[16] = test system: HOP-92 NSCLC
[17] = test system: HS 578T breast
[18] = test system: HT29 colon
[19] = test system: IGROV1 ovarian
[20] = test system: K-562 leukemia
[21] = test system: KM12 colon
[22] = test system: LOX IMVI melanoma
[23] = test system: M14 melanoma
[24] = test system: MALME-3M melanoma
[25] = test system: MCF7 breast
[26] = test system: MDA-MB-231 breast
[27] = test system: MDA-MB-435 melanoma
[28] = test system: MDA-MB-468 breast
[29] = test system: MOLT-4 leukemia
[30] = test system: NCI-H226 lung
[31] = test system: NCI-H23 lung
[32] = test system: NCI-H322M lung
[33] = test system: NCI-H460 NSCLC
[34] = test system: NCI-H522 lung
[35] = test system: NCI/ADR-RES ovarian
[36] = test system: OVCAR-3 ovarian
[37] = test system: OVCAR-4 ovarian
[38] = test system: OVCAR-5 ovarian
[39] = test system: OVCAR-8 ovarian
[40] = test system: PC-3 prostate
[41] = test system: RPMI-8226 leukemia
[42] = test system: RXF 393 renal
[43] = test system: SF-268 CNS
[44] = test system: SF-295 CNS
[45] = test system: SF-539 CNS
[46] = test system: SK-MEL-28 melanoma
[47] = test system: SK-MEL-5 melanoma
[48] = test system: SK-OV-3 ovarian
[49] = test system: SN12C renal
[50] = test system: SNB-19 CNS
[51] = test system: SNB-75 CNS
[52] = test system: SW-620 colon
[53] = test system: T-47D breast
[54] = test system: TK-10 renal
[55] = test system: U251 glioblastoma
[56] = test system: UACC-257 melanoma
[57] = test system: UACC-62 melanoma
[58] = test system: UO-31 renal

## CC(C)(F)C[C@H](N[C@@H](c1ccc(-c2ccc(S(C)(=O)=O)cc2)cc1)C(F)(F)F)C(=O)NC1(C#N)CC1
[1]
  GI50: 21.9 µM
  TGI: 53.5 µM
[2]
  GI50: 21.3 µM
  TGI: 46.7 µM
[3]
  GI50: 34.9 µM
  TGI: > 100 µM
[4]
  GI50: > 100 µM
  TGI: > 100 µM
[5]
  GI50: 39.7 µM
  TGI: > 100 µM
[6]
  GI50: 30.5 µM
  TGI: > 100 µM
[7]
  GI50: > 100 µM
  TGI: > 100 µM
[8]
  GI50: > 100 µM
  TGI: > 100 µM
[9]
  GI50: 46.4 µM
  TGI: > 100 µM
[10]
  GI50: 39.2 µM
  TGI: > 100 µM
[11]
  GI50: > 100 µM
  TGI: > 100 µM
[12]
  GI50: > 100 µM
  TGI: > 100 µM
[13]
  GI50: > 100 µM
  TGI: > 100 µM
[14]
  GI50: > 100 µM
  TGI: > 100 µM
[15]
  GI50: 22.8 µM
  TGI: 63 µM
[16]
  GI50: 11.2 µM
  TGI: 28.9 µM
[17]
  GI50: 21.2 µM
  TGI: 45.3 µM
[18]
  GI50: > 100 µM
  TGI: > 100 µM
[19]
  GI50: > 100 µM
  TGI: > 100 µM
[20]
  GI50: > 100 µM
  TGI: > 100 µM
[21]
  GI50: 43.6 µM
  TGI: > 100 µM
[22]
  GI50: 59.3 µM
  TGI: > 100 µM
[23]
  GI50: 71.5 µM
  TGI: > 100 µM
[24]
  GI50: 33.7 µM
  TGI: 86.9 µM
[25]
  GI50: 27.3 µM
  TGI: 91.1 µM
[26]
  GI50: 39.6 µM
  TGI: > 100 µM
[27]
  GI50: 96.2 µM
  TGI: > 100 µM
[28]
  GI50: 39.4 µM
  TGI: > 100 µM
[29]
  GI50: 41.1 µM
  TGI: > 100 µM
[30]
  GI50: 23.5 µM
  TGI: 54.6 µM
[31]
  GI50: 30.9 µM
  TGI: 83 µM
[32]
  GI50: 49.8 µM
  TGI: > 100 µM
[33]
  GI50: 22.4 µM
  TGI: 53.8 µM
[34]
  GI50: 21.4 µM
  TGI: 40.2 µM
[35]
  GI50: 88.1 µM
  TGI: > 100 µM
[36]
  GI50: 31.1 µM
  TGI: 76.7 µM
[37]
  GI50: 19.8 µM
  TGI: 38 µM
[38]
  GI50: > 100 µM
  TGI: > 100 µM
[39]
  GI50: 20.7 µM
  TGI: 46.1 µM
[40]
  GI50: 41.3 µM
  TGI: > 100 µM
[41]
  GI50: 55.9 µM
  TGI: > 100 µM
[42]
  GI50: 18.3 µM
  TGI: 35.3 µM
[43]
  GI50: 22.1 µM
  TGI: 41 µM
[44]
  GI50: 22.9 µM
  TGI: 63.4 µM
[45]
  GI50: 23.1 µM
  TGI: 44.1 µM
[46]
  GI50: 40.9 µM
  TGI: > 100 µM
[47]
  GI50: 23 µM
  TGI: 55.8 µM
[48]
  GI50: 27.3 µM
  TGI: 69.6 µM
[49]
  GI50: 34.9 µM
  TGI: > 100 µM
[50]
  GI50: 35.7 µM
  TGI: 92.4 µM
[51]
  GI50: 20.5 µM
  TGI: 37.3 µM
[52]
  GI50: > 100 µM
  TGI: > 100 µM
[53]
  GI50: 36.6 µM
  TGI: > 100 µM
[54]
  GI50: 33.1 µM
  TGI: 97.9 µM
[55]
  GI50: 24.7 µM
  TGI: 55.5 µM
[56]
  GI50: 26.7 µM
  TGI: 55.4 µM
[57]
  GI50: 42.1 µM
  TGI: > 100 µM
[58]
  GI50: > 100 µM
  TGI: > 100 µM

— PubChem BioAssay (NCI)
